#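 Briefly, cells in 96-well plates were exposed to five compound concentrations for 48 h, and endpoints were estimated by linear interpolation. GI50 marks 50% less growth.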 Calls of active or inactive are those of the source. No stated cut-off is given here; in the data, active = GI50 up to about 1.1 µM and inactive = higher.
# Key:
# Experiment in all cases: DTP human tumour cell line panel, 48 h
# [1] = tested on: T47D
# [2] = tested on: OVCAR-4
# [3] = tested on: RPMI-8226
# [4] = tested on: NCI-H460
# [5] = tested on: SK-MEL-2
# [6] = tested on: HCT-15
# [7] = tested on: 786-0
# [8] = tested on: UACC-62
# [9] = tested on: TK-10
# [10] = tested on: HOP-92
# [11] = tested on: SW-620
# [12] = tested on: NCI/ADR-RES
# [13] = tested on: K562
# [14] = tested on: MDA-MB-435
# [15] = tested on: ACHN
# [16] = tested on: HT-29
# [17] = tested on: SR
# [18] = tested on: SNB-19
# [19] = tested on: PC-3
# [20] = tested on: OVCAR-3
# [21] = tested on: EKVX
# [22] = tested on: RXF 393
# [23] = tested on: HCT-116
# [24] = tested on: MDA-MB-231
# [25] = tested on: HL-60
# [26] = tested on: HCC 2998
# [27] = tested on: UACC-257
# [28] = tested on: KM12
# [29] = tested on: CAKI-1
# [30] = tested on: OVCAR-5
# [31] = tested on: SN12C
# [32] = tested on: A498
# [33] = tested on: LOX IMVI
# [34] = tested on: MDA-N
# [35] = tested on: UO-31
# [36] = tested on: U-251
# [37] = tested on: SK-MEL-5
# [38] = tested on: Malme-3M
# [39] = tested on: SF-268
# [40] = tested on: SK-OV-3
# [41] = tested on: CCRF-CEM
# [42] = tested on: SK-MEL-28
# [43] = tested on: HOP-62
# [44] = tested on: SF-539
# [45] = tested on: NCI-H23
# [46] = tested on: MCF7
# [47] = tested on: MOLT-4
# [48] = tested on: NCI-H226
# [49] = tested on: A549
# [50] = tested on: M14
# [51] = tested on: NCI-H522
# [52] = tested on: OVCAR-8
# [53] = tested on: COLO 205
# [54] = tested on: SF-295
# [55] = tested on: DU-145
# [56] = tested on: IGROV-1
# [57] = tested on: SNB-75
# [58] = tested on: Hs-578T
compound,measurement,setting,value
NC(=O)NC(=O)c1cccc(C(=O)NC(N)=O)n1,GI50,[1],> 100 µM (inactive)
same,GI50,[2],> 100 µM (inactive)
same,GI50,[3],> 100 µM (inactive)
same,GI50,[4],> 100 µM (inactive)
same,GI50,[5],> 100 µM (inactive)
same,GI50,[6],> 100 µM
same,GI50,[7],> 100 µM (inactive)
same,GI50,[8],> 100 µM (inactive)
same,GI50,[9],> 100 µM (inactive)
same,GI50,[10],24 µM (inactive)
same,GI50,[11],> 100 µM (inactive)
same,GI50,[12],> 100 µM (inactive)
same,GI50,[13],> 100 µM (inactive)
same,GI50,[14],> 100 µM (inactive)
same,GI50,[15],> 100 µM (inactive)
same,GI50,[16],> 100 µM (inactive)
same,GI50,[17],> 100 µM (inactive)
same,GI50,[18],> 100 µM (inactive)
same,GI50,[19],> 100 µM (inactive)
same,GI50,[20],> 100 µM (inactive)
same,GI50,[21],> 100 µM (inactive)
same,GI50,[22],> 100 µM (inactive)
same,GI50,[23],> 100 µM (inactive)
same,GI50,[24],> 100 µM (inactive)
same,GI50,[25],> 100 µM (inactive)
same,GI50,[26],> 100 µM (inactive)
same,GI50,[27],> 100 µM (inactive)
same,GI50,[28],> 100 µM (inactive)
same,GI50,[29],> 100 µM (inactive)
same,GI50,[30],> 100 µM (inactive)
same,GI50,[31],> 100 µM (inactive)
same,GI50,[32],> 100 µM (inactive)
same,GI50,[33],> 100 µM (inactive)
same,GI50,[34],> 100 µM (inactive)
same,GI50,[35],> 100 µM (inactive)
same,GI50,[36],> 100 µM (inactive)
same,GI50,[37],> 100 µM (inactive)
same,GI50,[38],> 100 µM (inactive)
same,GI50,[39],> 100 µM (inactive)
same,GI50,[40],> 100 µM (inactive)
same,GI50,[41],> 100 µM (inactive)
same,GI50,[42],> 100 µM (inactive)
same,GI50,[43],> 100 µM (inactive)
same,GI50,[44],> 100 µM (inactive)
same,GI50,[45],> 100 µM (inactive)
same,GI50,[46],> 100 µM (inactive)
same,GI50,[47],> 100 µM (inactive)
same,GI50,[48],> 100 µM (inactive)
same,GI50,[49],> 100 µM (inactive)
same,GI50,[50],> 100 µM (inactive)
same,GI50,[51],> 100 µM (inactive)
same,GI50,[52],> 100 µM (inactive)
same,GI50,[53],> 10 µM (inactive)
same,GI50,[54],> 100 µM (inactive)
same,GI50,[55],> 100 µM (inactive)
O=C1c2scc(-c3ccc(Cl)cc3)c2-n2cccc21,GI50,[1],> 100 µM (inactive)
same,GI50,[3],> 100 µM (inactive)
same,GI50,[4],> 100 µM (inactive)
same,GI50,[5],> 100 µM (inactive)
same,GI50,[8],7.13 µM (inactive)
same,GI50,[56],3.17 µM (inactive)
same,GI50,[11],> 100 µM (inactive)
same,GI50,[13],3.93 µM (inactive)
same,GI50,[14],8.04 µM (inactive)
same,GI50,[15],> 100 µM (inactive)
same,GI50,[57],2.4 µM (inactive)
same,GI50,[17],2.84 µM (inactive)
same,GI50,[19],> 100 µM (inactive)
same,GI50,[20],> 100 µM (inactive)
same,GI50,[21],2.47 µM (inactive)
same,GI50,[22],> 100 µM (inactive)
same,GI50,[24],14 µM (inactive)
same,GI50,[26],> 100 µM (inactive)
same,GI50,[27],> 100 µM (inactive)
same,GI50,[28],5.25 µM (inactive)
same,GI50,[30],> 100 µM (inactive)
same,GI50,[32],1.11 µM (active)
same,GI50,[33],> 100 µM (inactive)
same,GI50,[34],8.65 µM (inactive)
same,GI50,[37],> 100 µM (inactive)
same,GI50,[38],> 100 µM (inactive)
same,GI50,[40],> 100 µM (inactive)
same,GI50,[41],> 100 µM (inactive)
same,GI50,[42],> 100 µM (inactive)
same,GI50,[47],73.3 µM (inactive)
same,GI50,[49],> 100 µM (inactive)
same,GI50,[50],50.5 µM (inactive)
same,GI50,[51],2.98 µM (inactive)
same,GI50,[53],> 100 µM (inactive)
same,GI50,[54],> 100 µM (inactive)
same,GI50,[58],1.95 µM (inactive)
same,GI50,[55],> 100 µM (inactive)
CC1OC(O[C@H]2/C=C/C=C/C=C/C=C/C=C/C=C/C=C/[C@H](C)[C@@H](O)[C@@H](C)[C@H](C)OC(=O)C[C@H](O)C[C@H](O)CC[C@@H](O)[C@H](O)C[C@H](O)C[C@]3(O)C[C@H](O)[C@@H](C(=O)O)[C@H](C2)O3)C(O)C(N)C1O (stereo partly specified),GI50,[2],18.2 µM (inactive)
same,GI50,[5],36.7 µM (inactive)
same,GI50,[7],4.4 µM (inactive)
same,GI50,[10],32.2 µM (inactive)
same,GI50,[56],10 µM (inactive)
same,GI50,[11],11.6 µM (inactive)
same,GI50,[13],60.4 µM (inactive)
same,GI50,[16],21.8 µM (inactive)
same,GI50,[17],2.35 µM (inactive)
same,GI50,[19],16.3 µM (inactive)
same,GI50,[20],15.9 µM (inactive)
same,GI50,[22],5.64 µM (inactive)
same,GI50,[23],24.3 µM (inactive)
same,GI50,[26],28.5 µM (inactive)
same,GI50,[28],20.5 µM (inactive)
same,GI50,[34],7.69 µM (inactive)
same,GI50,[35],1.79 µM (inactive)
same,GI50,[40],37.3 µM (inactive)
same,GI50,[41],6.15 µM (inactive)
same,GI50,[46],20.5 µM (inactive)
same,GI50,[48],> 100 µM (inactive)
same,GI50,[51],8.87 µM (inactive)
same,GI50,[53],24.3 µM (inactive)
same,GI50,[58],9.25 µM (inactive)
